Source: PubChem BioAssay AID248 (DTP/NCI, 2004)
“And” between values parts separate entries of the source, which are not always exact repeats. Equal entries are not always repeated. Inconclusive results and toxic doses are left out. Rule as the data show it: active = T/C of 150% or more; inactive = T/C below 125%.

Test system: L1210 leukemia ip in BDF1 mice, survival T/C
Assay: NCI In Vivo Anticancer Drug Screen. Data for tumor model L1210 Leukemia (intraperitoneal) in B6D2F1 (BDF1) mice
Details: endpoint: mean survival time, higher = longer survival
Method in brief: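 Antitumor effect is assessed in tumor-bearing animals. Survival in the compound arm is compared with a vehicle-dosed control arm and expressed as their quotient.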

[1] = dose: 100.0 mg/kg/injection, schedule: Q01DX001 (ip), vehicle: saline
[2] = dose: 200.0 mg/kg/injection, schedule: Q01DX001 (ip), vehicle: saline
[3] = dose: 50.0 mg/kg/injection, schedule: Q04DX003 (ip), vehicle: Klucel (hydroxypropylcellulose) (HPC)
[4] = dose: 100.0 mg/kg/injection, schedule: Q01DX009 (ip), vehicle: Klucel (hydroxypropylcellulose) (HPC)
[5] = dose: 100.0 mg/kg/injection, schedule: Q04DX003 (ip), vehicle: Klucel (hydroxypropylcellulose) (HPC)
[6] = dose: 200.0 mg/kg/injection, schedule: Q01DX009 (ip), vehicle: Klucel (hydroxypropylcellulose) (HPC)
[7] = dose: 200.0 mg/kg/injection, schedule: Q04DX003 (ip), vehicle: Klucel (hydroxypropylcellulose) (HPC)
[8] = dose: 100.0 mg/kg/injection, schedule: Q04DX002 (ip), vehicle: saline with Tween-80
[9] = dose: 100.0 mg/kg/injection, schedule: Q04DX002 (ip), vehicle: saline
[10] = dose: 200.0 mg/kg/injection, schedule: Q04DX002 (ip), vehicle: saline
[11] = dose: 400.0 mg/kg/injection, schedule: Q04DX003 (ip), vehicle: Klucel (hydroxypropylcellulose) (HPC)
[12] = dose: 100.0 mg/kg/injection, schedule: Q01DX001 (ip), vehicle: saline with Tween-80
[13] = dose: 200.0 mg/kg/injection, schedule: Q01DX001 (ip), vehicle: saline with Tween-80
[14] = dose: 200.0 mg/kg/injection, schedule: Q04DX002 (ip), vehicle: saline with Tween-80
[15] = dose: 400.0 mg/kg/injection, schedule: Q01DX001 (ip), vehicle: saline with Tween-80
[16] = dose: 100.0 mg/kg/injection, schedule: Q01DX001 (ip), vehicle: carboxymethylcellulose (CMC)
[17] = dose: 200.0 mg/kg/injection, schedule: Q01DX001 (ip), vehicle: carboxymethylcellulose (CMC)

Measured: T/C

Cc1cc[n+](Cc2ccc([N+](=O)[O-])cc2)cc1
inactive: dose: 25.0 mg/kg/injection, schedule: Q01DX009 (ip), vehicle: saline 94 % of control | dose: 50.0 mg/kg/injection, schedule: Q01DX009 (ip), vehicle: saline 89 % of control | dose: 50.0 mg/kg/injection, schedule: Q04DX003 (ip), vehicle: saline 101 % of control | [1] 96 % of control | dose: 100.0 mg/kg/injection, schedule: Q01DX009 (ip), vehicle: saline 93 % of control | dose: 100.0 mg/kg/injection, schedule: Q04DX003 (ip), vehicle: saline 98 % of control | [2] 100 % of control

Cc1cc2[nH]c(=O)c(=O)[nH]c2cc1C
inactive: [3] 104 % of control | [4] 105 % of control | [5] 94 % of control | [6] 100 % of control | [7] 100 % of control

CCOC(=O)C1CC1(C)Br (centres undefined)
inactive: dose: 3.13 mg/kg/injection, schedule: Q04DX002 (ip), vehicle: saline with Tween-80 97 % of control | dose: 6.25 mg/kg/injection, schedule: Q04DX002 (ip), vehicle: saline with Tween-80 87 % of control | dose: 25.0 mg/kg/injection, schedule: Q04DX002 (ip), vehicle: saline with Tween-80 87 % of control | [8] 90 % of control

COc1ncnc(Cl)c1[N+](=O)[O-]
inactive: [3] 92 % of control | [5] 92 % of control and 86 % of control | [7] 97 % of control and 91 % of control

O=C(NC(CSC1CCCCO1)C(=O)O)OCc1ccccc1 (centres undefined) (tested in a mixture with another compound)
inactive: dose: 50.0 mg/kg/injection, schedule: Q01DX001 (ip), vehicle: saline 106 % of control | [1] 101 % of control | [2] 97 % of control

O=C(N/N=C\c1ccc(-c2ccccc2)cc1)N/N=C/c1ccc(-c2ccccc2)cc1
inactive: dose: 100.0 mg/kg/injection, schedule: Q04DX003 (ip), vehicle: carboxymethylcellulose (CMC) 90 % of control | dose: 200.0 mg/kg/injection, schedule: Q04DX003 (ip), vehicle: carboxymethylcellulose (CMC) 87 % of control

CCC(NC(=O)CCl)C(=O)O (centres undefined)
inactive: [9] 120 % of control | [10] 103 % of control

CC(CC(=O)O)c1ccc(C(C)(C)C)cc1 (centres undefined)
inactive: [5] 95 % of control | [7] 107 % of control | [11] 98 % of control

CC12CCC(Cl)CC1=CCC1C2CCC2(C)c3nc(N)ncc3CC12 (centres undefined)
inactive: dose: 100.0 mg/kg/injection, schedule: Q04DX003 (sc), vehicle: gum acacia 101 % of control | dose: 200.0 mg/kg/injection, schedule: Q04DX003 (sc), vehicle: gum acacia 92 % of control | dose: 400.0 mg/kg/injection, schedule: Q04DX003 (sc), vehicle: gum acacia 103 % of control

COc1ccc(C(=O)Nc2cccc(C(F)(F)F)c2)cc1
inactive: [12] 97 % of control | dose: 100.0 mg/kg/injection, schedule: Q01DX009 (ip), vehicle: saline with Tween-80 100 % of control | [8] 100 % of control and 105 % of control | [13] 100 % of control | dose: 200.0 mg/kg/injection, schedule: Q01DX009 (ip), vehicle: saline with Tween-80 121 % of control | [14] 100 % of control and 108 % of control | [15] 98 % of control | dose: 400.0 mg/kg/injection, schedule: Q01DX009 (ip), vehicle: saline with Tween-80 118 % of control | dose: 400.0 mg/kg/injection, schedule: Q04DX002 (ip), vehicle: saline with Tween-80 107 % of control and 90 % of control

CCC(=O)c1cc(Cl)ccc1O
inactive: dose: 100.0 mg/kg/injection, schedule: Q01DX009 (ip), vehicle: other 100 % of control | dose: 200.0 mg/kg/injection, schedule: Q01DX009 (ip), vehicle: other 104 % of control | dose: 400.0 mg/kg/injection, schedule: Q01DX009 (ip), vehicle: other 102 % of control

CN1CCC(CCOCc2ccccc2)(CN2c3ccccc3Sc3ccccc32)C1 (centres undefined)
inactive: dose: 6.25 mg/kg/injection, schedule: Q01DX009 (ip), vehicle: saline with Tween-80 93 % of control | dose: 12.5 mg/kg/injection, schedule: Q01DX009 (ip), vehicle: saline with Tween-80 98 % of control | dose: 25.0 mg/kg/injection, schedule: Q01DX009 (ip), vehicle: saline with Tween-80 93 % of control

O=C(NCCc1ccccc1)Nc1ccccc1
inactive: dose: 75.0 mg/kg/injection, schedule: Q01DX009 (ip), vehicle: saline with Tween-80 100 % of control | dose: 75.0 mg/kg/injection, schedule: Q04DX003 (ip), vehicle: saline with Tween-80 92 % of control | dose: 150.0 mg/kg/injection, schedule: Q01DX009 (ip), vehicle: saline with Tween-80 90 % of control | dose: 150.0 mg/kg/injection, schedule: Q04DX003 (ip), vehicle: saline with Tween-80 91 % of control | dose: 300.0 mg/kg/injection, schedule: Q01DX009 (ip), vehicle: saline with Tween-80 88 % of control | dose: 300.0 mg/kg/injection, schedule: Q04DX003 (ip), vehicle: saline with Tween-80 89 % of control

O=C(/C=C(\c1ccccc1)C1C2C=CC(C2)C1c1ccccc1)c1ccccc1 (centres undefined)
inactive: [12] 97 % of control | [13] 95 % of control | [15] 96 % of control

O=C1c2ccccc2C(=O)N1Cc1ccccc1
inactive: dose: 100.0 mg/kg/injection, schedule: Q04DX003 (ip), vehicle: saline with Tween-80 92 % of control | dose: 200.0 mg/kg/injection, schedule: Q04DX003 (ip), vehicle: saline with Tween-80 100 % of control | dose: 400.0 mg/kg/injection, schedule: Q04DX003 (ip), vehicle: saline with Tween-80 96 % of control

Cc1cc(N(CCCCl)CCCCl)ccc1C=Nc1cccc(Cl)c1
inactive: [5] 101 % of control | [7] 101 % of control | [11] 96 % of control

Cc1ccccc1N=NN(C)C
inactive: [16] 106 % of control | [17] 106 % of control

CCOc1ccc(/C=C2\C=Nc3ccccc32)cc1
inactive: [4] 91 % of control | [6] 99 % of control

CCOC(=O)c1c2c(=O)n(C)c(=O)n(C)c2nc2c1c(=O)n(C)c(=O)n2C
inactive: dose: 50.0 mg/kg/injection, schedule: Q01DX009 (ip), vehicle: Klucel (hydroxypropylcellulose) (HPC) 93 % of control | [4] 93 % of control | [6] 86 % of control

O=NN(CCCl)C(=O)NN1CCCCCC1
inactive: dose: 15.0 mg/kg/injection, schedule: Q01DX001 (ip), vehicle: carboxymethylcellulose (CMC) 101 % of control | dose: 30.0 mg/kg/injection, schedule: Q01DX001 (ip), vehicle: carboxymethylcellulose (CMC) 101 % of control

CCOC(=O)Nc1cc(NCC(O)CN(C)c2ccccc2)c(N)c(NC(=O)OCC)n1 (centres undefined)
inactive: [16] 87 % of control | [17] 87 % of control | dose: 400.0 mg/kg/injection, schedule: Q01DX001 (ip), vehicle: carboxymethylcellulose (CMC) 92 % of control

Cc1ccc2nc(C)cc(NC(=O)c3ccccc3)c2c1
inactive: dose: 5.0 mg/kg/injection, schedule: Q01DX001 (ip), vehicle: saline 110 % of control | dose: 10.0 mg/kg/injection, schedule: Q01DX001 (ip), vehicle: saline 95 % of control | dose: 20.0 mg/kg/injection, schedule: Q01DX001 (ip), vehicle: saline 100 % of control | dose: 40.0 mg/kg/injection, schedule: Q01DX001 (ip), vehicle: saline 105 % of control | dose: 80.0 mg/kg/injection, schedule: Q01DX001 (ip), vehicle: saline 106 % of control

O=C1CNCSC1
inactive: [9] 102 % of control | [10] 115 % of control | dose: 400.0 mg/kg/injection, schedule: Q04DX002 (ip), vehicle: saline 94 % of control

O=P(O)(Oc1cccc(Cl)c1)Oc1cccc(Cl)c1
inactive: [8] 115 % of control | [14] 104 % of control
